# Experimental data: article PMC10529594, “Strasseriolides display in vitro and in vivo activity against trypanosomal parasites and cause morphological and size defects in Trypanosoma cruzi” (PLOS Neglected Tropical Diseases, 2023)
# Several values for one entry are separate records, joined by “and”; a condition that tells them apart may be missing. Equal entries are not always repeated.
# Tests used:
# [1] = test system: T. cruzi Tulahuen C4 epimastigotes; assay: T. cruzi epimastigotes growth inhibition assay (resazurin); type: cell-based, Trypanosoma cruzi; conditions: 72 h
# Method: The Trypanosoma cruzi Tulahuen strain used is a genetically modified strain that expresses the Escherichia coli β-galactosidase gene, lacZ [31]. It was kindly supplied by Marcel Kaiser (Swiss Tropical and Public Health Institute). The T. cruzi Tulahuen C4 strain was cultured in RPMI-1640 supplemented with 10% inactivated FBS (iFBS), 1.7 mM L-glutamine, 100 U/mL penicillin, and […] at 37°C and 5% CO2. L6 rat skeletal muscle cells were purchased from ATCC (reference CRL-1458) and used as host cells for infection with transgenic T. cruzi trypomastigotes. Epimastigotes were obtained by differentiation in LIT medium with 10% iFBS at 28°C from trypomastigote forms.
# A resazurin-based assay was set up in 96-well microplates containing 10 μL of test compound at concentrations ranging from 0.39 to 200 μM and log phase parasites seeded at 2 × 10^5 cells per well in a final volume of 100 μL. Maximum DMSO percentage in the well was 0.2%. Positive and negative growth controls were included. Following 72 hour incubation at 28°C with orbital shaking, 10 μL of resazurin solution were added to each well and the plates were returned to the incubator for 4 hours. Resazurin reduction was correlated to cell viability by fluorescence measurement with excitation and emission wavelength bands centered at 550 and 590 nm, respectively, in a Tecan Infinite 200 microplate reader.
# [2] = test system: human macrophage THP-1 cells; assay: Cytotoxicity in THP-1 macrophages (MTT); type: cell-based
# Method: Cellular toxicity of compounds in the human macrophage host TPH-1 cell line was determined using the colorimetric MTT-based assay as previously described.
# THP-1 cells were seeded at 3 × 10^4 cells/well in 96-well plates and were differentiated to macrophages with 20 ng/ml of PMA treatment for 48 h followed by 24 h incubation in fresh medium. Strasseriolides were added at increasing concentrations up to 50 μM and cells were further incubated at 37°C for 72 h. 10 μL of MTT (5 mg/mL in PBS) were added to each well, and plates were incubated for an additional period of 8 h at 37°C. Formazan crystals were dissolved by adding 50 μL of 20% SDS and absorbance was read at 595 nm using a microplate reader.
# [3] = test system: T. cruzi Tulahuen C4 trypomastigotes; assay: T. cruzi trypomastigote viability assay (resazurin fluorescence); type: cell-based, Trypanosoma cruzi; conditions: Tulahuen C4, 72 hours at 37°C
# Method: Tulahuen T. cruzi trypomastigotes were recovered 6 days post infection from the supernatant of harvested infected L6 cells cultures after 3 hours at 37°C. 90 μL of parasite culture at a density of 5 × 10^6 cells in RPMI 1640 media were dispensed into 96 Nunc flat bottom assay plates containing 10 μL of each compound.
# In the fluorescence assay, plates were incubated for 24 and 48 hours after which 10 μL of the resazurin solution were added to each well. Plates were further incubated for 24 hours and fluorescence was measured at 550/590 nm using a Tecan Infinite 200 microplate reader. […] Final maximal DMSO percentage in the well was 0.1% and compound concentrations ranged from 0.2 to 100 μM.
# [4] = test system: T. b. brucei 427 bloodstream forms; assay: Resazurin-based T. b. brucei assay; type: cell-based; conditions: Trypanosoma brucei, 72 h, read-out: EC50 T. brucei
# Method: Parasites strains adapted to culture in vitro were used. T. b. brucei Lister 427 bloodstream form parasites (information about the identity and genealogy of this strain is available at The Rockefeller University website) were grown in HMI-9 medium supplemented with 10% heat-inactivated fetal bovine serum (iFBS).
# Cells in logarithmic phase of growth were added using a Multidrop dispenser (45 μL, 500 bloodstream T. b. brucei parasites per well) to 384-well Corning assay plates already containing 5 μL of each compound and controls, and incubated for 72 hours at 37°C. 10 μL of resazurin were added per well, and the plates were further incubated for 6 hours at 37°C. The final fluorescence was determined at 550–590 nm. Pentamidine at 40 nM and 0.0067% DMSO were used as […] growth controls, respectively.
# [5] = test system: L. donovani MHOM/ET/67/HU3 transgenic intracellular amastigotes; assay: L. donovani intracellular amastigote assay (luciferase, THP-1 macrophages); type: cell-based; conditions: Leishmania donovani, THP-1, 72 h, read-out: EC50 L. donovani
# Method: Leishmania donovani MHOM/ET/67/HU3 cells with the luciferase gene integrated into the parasite genome was obtained as described. Parasites were grown at 28°C in RPMI 1640-modified medium supplemented with 20% heat-inactivated fetal bovine serum (iFBS, Invitrogen) with […] of hygromycin B.
# THP-1 cells were differentiated into macrophages with 20 ng/mL of PMA in a 96-well plate at 3 × 10^4 cells per well for 48 hours followed by 24 hours of culture in fresh medium. Cells were then infected with transgenic stationary L. donovani MHOM/ET/67/HU3 promastigotes expressing the luciferase gene at a multiplicity of infection (MOI) of 10. A volume of 100 μL of culture media containing the test compounds was added to each well and the plates were incubated at 37°C for 72 hours. Luminescence was measured using the Promega kit luciferase assay system.
# [6] = test system: T. cruzi epimastigotes; assay: FACS analysis of T. cruzi epimastigotes (cell cycle, size and complexity); type: cell-based, Trypanosoma cruzi; conditions: for Foward Scatter (FSC) - Geometric Mean, single experiment / Foward Scatter (FSC) - Geometric Mean, Average / size reduction with respect to untreated parasites: 72 h
# Method: FACS analysis was used to study cell cycle progression and cellular parameters such as size and complexity. 5 × 10^6 T. cruzi epimastigotes were harvested by centrifugation at 1,000×g and 4°C after 72 hours of incubation in a 6-well plate in the presence and in absence of test compounds. Pellets of cells were washed with 5 mL of PBS and fixed in a solution of 70% ice-cold ethanol/PBS at -20°C overnight. Cells were then collected by centrifugation, washed with PBS and stained with 40 μg/mL of propidium iodide in PBS containing 10 μg/mL of RNase A at 37°C for 30 minutes. Fluorescence was monitored with a Becton Dickinson FACSCalibur using BD CellQuest Pro version 4.0.2 software with a total of 10,000 events acquired for each sample. The different cell populations as well as mean cellular parameters were determined by FlowJo software.
# [7] = 72-hour drug exposure, FACS with PI staining, EC30, average
# [8] = 72-hour drug exposure, FACS with PI staining, EC30, single replicates
# [9] = 72-hour drug exposure, FACS with PI staining, EC70, average
# [10] = 72-hour drug exposure, FACS with PI staining, EC70, single replicates
compound,measurement,setting,value
"C/C1=C\[C@H](C)[C@@H](O)C[C@@H](O)/C(C)=C/[C@H](C)C[C@@H](C)CC[C@@H]([C@@H](C)C(=O)O)OC(=O)[C@@H](C)C1 [Strasseriolide D, strasseriolide D]","EC30, epimastigotes",[1]; from dose-response curve,36 µM
same,"EC70, epimastigotes",[1]; from dose-response curve,68 µM
same,EC50,"[1]; Trypanosoma cruzi, TULAHUEN, Tulahuen C4, 72 h, resazurin",42.4 µM
same,Selectivity index intracellular L. donovani versus THP-1 cells,[2],> 37
same,EC50,"[2]; Homo sapiens, THP-1, 72 h, MTT, read-out: EC50 THP-1",> 500 µM
same,EC50,"[3]; Trypanosoma cruzi, TULAHUEN, 72 h",3.4 µM
same,EC50,[3],3.38 µM
same,EC50,[4],> 100 µM
same,EC50,[5],13.6 µM
same,"% Cells G1, Average",[6]; [7],48.0485%
same,"% Cells G2/M, Average",[6]; [7],33.3241%
same,"% Cells S, Average",[6]; [7],15.9233%
same,"% Cells post G2/M, Average",[6]; [7],0.01106%
same,"% Cells sub-G1, Average",[6]; [7],2.693%
same,"% Cells G1, individual replicates",[6]; [8],50.4058% and 45.6911%
same,"% Cells G2/M, individual replicates",[6]; [8],32.7574% and 33.8908%
same,"% Cells S, individual replicates",[6]; [8],14.3321% and 17.5145%
same,"% Cells post G2/M, individual replicates",[6]; [8],0.6783% and -0.6562%
same,"% Cells sub-G1, individual replicates",[6]; [8],1.8263% and 3.56%
same,"% Cells G1, Average",[6]; [9],50.7294%
same,"% Cells G2/M, Average",[6]; [9],37.5216%
same,"% Cells S, Average",[6]; [9],12.1278%
same,"% Cells sub-G1, Average",[6]; [9],1.9646%
same,"% Cells G1, individual replicates",[6]; [10],49.2764% and 52.1825%
same,"% Cells G2/M, individual replicates",[6]; [10],34.0219% and 41.0212%
same,"% Cells S, individual replicates",[6]; [10],15.873% and 8.383%
same,"% Cells post G2/M, individual replicates",[6]; [10],-1.15% and -3.537%
same,"% Cells sub-G1, individual replicates",[6]; [10],1.978% and 1.951%
same,"Foward Scatter (FSC) - Geometric Mean, single experiment",[6]; EC30,81.9 and 80.4
same,"Foward Scatter (FSC) - Geometric Mean, Average","[6]; EC30, control 96.65",81.15
same,"Foward Scatter (FSC) - Geometric Mean, single experiment",[6]; EC70,77.8 and 72.2
same,"Foward Scatter (FSC) - Geometric Mean, Average","[6]; EC70, control 96.65",75
same,size reduction with respect to untreated parasites,[6]; at EC30,16%
same,size reduction with respect to untreated parasites,[6]; at EC70,24%
